Experiments:
[1] = test system: MDA-MB231 clone 16 cells; experiment: In vitro cell killing assay of payloads (cell proliferation, Cell-Titer-Glo); type: cell-based; settings: Homo sapiens, 120 h; MDA-MB-231 clone 16 cells; Cell-Titer-Glo after five days
[2] = test system: H526 cells; experiment: as above; type: cell-based; settings: Homo sapiens, 120 h; NCI-H526 cells; Cell-Titer-Glo after five days; Table 2a; read-out: In vitro cell killing (IC50 (nM)) NCI-H526
[3] = test system: Jurkat cells; experiment: as above; type: cell-based; settings: Homo sapiens, 120 h, Cell-Titer-Glo after five days
[4] = test system: HCC1954 cells; experiment: as above; type: cell-based; settings: Homo sapiens, 120 h; HCC1954 cells; Cell-Titer-Glo after five days; Table 2a; read-out: In vitro cell killing (IC50 (nM)) HCC1954
[5] = test system: CMK11-5 cells; experiment: as above; type: cell-based; settings: Homo sapiens, 120 h; CMK-11-5 cells; Cell-Titer-Glo after five days
[6] = test system: MDA-MB231 clone 40 cells; experiment: as above; type: cell-based; settings: Homo sapiens, 120 h; MDA-MB-231 clone 40 cells; Cell-Titer-Glo after five days
[7] = test system: KU812 cells; experiment: as above; type: cell-based; settings: Homo sapiens, 120 h, Cell-Titer-Glo after five days
[8] = test system: JimT1 cells; experiment: as above; type: cell-based; settings: Homo sapiens, JIMT-1, 120 h; JimT1 cells; Cell-Titer-Glo after five days; Table 2a; read-out: In vitro cell killing (IC50 (nM)) JimT1
[9] = acidic condition

SMILES | IC50 [1] | IC50 [2] | IC50 [3] | IC50 [4] | IC50 [5] | IC50 [6] | IC50 [7] | IC50 [8] | hydrolysis of the ester [9]
CC[C@H](C)[C@@H]([C@@H](CC(=O)N1CCC[C@H]1[C@H](OC)[C@@H](C)C(=O)N[C@H](C)[C@@H](O)c1ccccc1)OC)N(C)C(=O)[C@@H](NC(=O)[C@H]1N[C@@H]2CC[C@H]1C2)C(C)C [Compound 3, (1R,3S,4S)-N-((S)-1-(((3R,4S,5S)-1-((S)-2-((1R,2R)-3-(((1S,2R)-1-Hydroxy-1-phenylpropan-2-yl)amino)-1-methoxy-2-methyl-3-oxopropyl)pyrrolidin-1-yl)-3-methoxy-5-methyl-1-oxoheptan-4-yl)(methyl)amino)-3-methyl-1-oxobutan-2-yl)-2-azabicyclo[2.2.1]heptane-3-carboxamide] | 12.7 nM | 22 nM | 3.01 nM | 10.8 nM | 14.7 nM | 23.9 nM | 6.78 nM | 42.1 nM | 
CCCCOP(=O)(O)[C@H](Cc1ccccc1)NC(=O)[C@H](C)[C@@H](OC)[C@@H]1CCCN1C(=O)C[C@@H](OC)[C@H]([C@@H](C)CC)N(C)C(=O)[C@@H](NC(=O)[C@@H]1[C@H]2CC[C@H](C2)N1C(=O)CCCCCN1C(=O)C=CC1=O)C(C)C [Compound 29, Butyl hydrogen ((R)-1-((2R,3R)-3-((S)-1-((3R,4S,5S)-4-((S)-2-((1R,3S,4S)-2-(6-(2,5-dioxo-2,5-dihydro-1H-pyrrol-1-yl)hexanoyl)-2-azabicyclo[2.2.1]heptane-3-carboxamido)-N,3-dimethylbutanamido)-3-methoxy-5-methylheptanoyl)pyrrolidin-2-yl)-3-methoxy-2-methylpropanamido)-2-phenylethyl)phosphonate] |  |  |  |  |  |  |  |  | prone to hydrolysis in acidic condition
CC[C@H](C)[C@@H]([C@@H](CC(=O)N1CCC[C@H]1[C@H](OC)[C@@H](C)C(=O)N[C@@H](Cc1ccccc1)C(=O)NS(=O)(=O)CCCN=[N+]=[N-])OC)N(C)C(=O)[C@@H](NC(=O)[C@@H]1[C@H]2CC[C@H](C2)N1C)C(C)C [Compound 46, (1R,3S,4S)-N-((S)-1-(((3R,4S,5S)-1-((S)-2-((1R,2R)-3-(((S)-N-1-(3-Azidopropylsulfonamido)-1-oxo-3-phenylpropan-2-yl)amino)-1-methoxy-2-methyl-3-oxopropyl)pyrrolidin-1-yl)-3-methoxy-5-methyl-1-oxoheptan-4-yl)(methyl)amino)-3-methyl-1-oxobutan-2-yl)-2-methyl-2-azabicyclo[2.2.1]heptane-3-carboxamide] | 8.1 nM | 29.5 nM | 6.1 nM | 2.3 nM | 10.4 nM | 11.7 nM | 8.4 nM | 14.2 nM | 

— patent US9988420B2, “Cytotoxic peptides and conjugates thereof” (priority 2013, dated 2018)
